Reference: patent US9051351B2, “Hepatocyte growth factor mimics as therapeutic agents” (Washington State University, priority 2011, dated 2015)
Entries after “also recorded” stand apart in the source; their conditions may differ. Where a SMILES comes first, the peptide text is derived from it. [ ]: non-standard residue; d: D form. dNle = CCCC[C@@H](N)C(=O)O; Ahx = NCCCCCC(=O)O

Experiments:
[1] = in vitro; details: male, rat, pH 7.38
[2] = target: T1, human HGF (Homo sapiens, UniProt P14210); test: HGF dimerization (PAGE, silver staining); type: biochemical; details: analog 10^−10 M, heparin, 30 minute incubation
T1 construct: purchased R&D Systems (Minneapolis, Minn.)
T1 sequence (P14210 32-728): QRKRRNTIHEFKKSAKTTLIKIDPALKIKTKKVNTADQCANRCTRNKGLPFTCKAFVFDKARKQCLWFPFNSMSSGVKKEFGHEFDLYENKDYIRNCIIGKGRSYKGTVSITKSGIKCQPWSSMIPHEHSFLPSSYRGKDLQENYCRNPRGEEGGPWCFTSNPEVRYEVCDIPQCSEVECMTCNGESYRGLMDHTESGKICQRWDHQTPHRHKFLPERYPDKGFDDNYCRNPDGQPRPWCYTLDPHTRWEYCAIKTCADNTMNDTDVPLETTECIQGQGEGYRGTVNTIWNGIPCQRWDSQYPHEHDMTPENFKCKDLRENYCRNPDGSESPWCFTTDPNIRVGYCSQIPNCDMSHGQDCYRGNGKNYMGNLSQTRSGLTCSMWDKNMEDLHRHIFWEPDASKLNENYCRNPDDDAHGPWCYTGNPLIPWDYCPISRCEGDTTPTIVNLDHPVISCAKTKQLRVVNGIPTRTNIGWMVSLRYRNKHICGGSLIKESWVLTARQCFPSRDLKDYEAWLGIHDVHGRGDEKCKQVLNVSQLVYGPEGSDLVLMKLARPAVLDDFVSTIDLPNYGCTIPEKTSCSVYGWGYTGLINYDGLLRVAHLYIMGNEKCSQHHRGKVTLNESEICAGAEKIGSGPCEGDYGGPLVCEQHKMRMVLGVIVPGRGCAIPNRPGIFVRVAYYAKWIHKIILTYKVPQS
Protocol: HGF dimerization was assessed using PAGE followed by silver staining (Kawas et al., 2011). Human HGF at a concentration of 0.08 ng/μl with or without 6-AH analogs was incubated with heparin at a final concentration of 5 μg/ml. Loading buffer was then added to each sample and the mixture separated by native PAGE using gradient Criterion XT precast gels (4-12% Bis-Tris; Biorad Laboratories, Hercules, Calif.). Next the gel was silver stained for the detection of the HGF monomers and dimers. Bands were quantitated from digital images using a UVP phosphoimager (Upland, Calif.).

[3] = tested on: MDCK cells; test: HGF-dependent MDCK cell proliferation (MTT); type: cell-based, canine; details: analog 10^−10M, HGF 10 ng/ml, 4 days
Protocol: 5000 MDCK cells were seeded into the wells of a 96 well plates in 10% FBS DMEM. To induce cellular quiescence, the cells were serum deprived for 24 h prior to initiating the treatments. Following serum starvation, 10 ng/ml HGF alone and with various concentrations of 6-AH analogs or PBS vehicle were added to the media. The cells were allowed to grow under these conditions for 4 days with a daily addition of 6-AH analogs. On the fourth day, 1 mg/ml of […] (MTT, Sigma-Aldrich) prepared in PBS was added to the cells and incubated for 4 h. Dimethyl sulfoxide diluted in a 0.01M glycine buffer was added to solubilize the cell membranes and the absorbance of reduced MTT in the buffer was quantitated at 590 nm using a plate reader (Biotek Synergy 2, Winooski, Vt.). HGF-dependent proliferation was determined by subtracting the basal proliferation (in the absence of HGF) from total proliferation rates in groups containing HGF.

[4] = tested on: MDCK cells; test: Inhibition of HGF-dependent scattering in MDCK cells; type: cell-based, canine; details: HGF 20 ng/ml, 48 h
Protocol: MDCK cells were grown to 100% confluency on the coverslips in six-well plates and washed twice with PBS. The confluent coverslips were then aseptically transferred to new six well plates containing 900 μl serum free DMEM. Norleual, Hinge peptide, and/or HGF (20 ng/ml) were added to appropriate wells. Control wells received PBS vehicle. Plates were incubated at 37° C. with 5% CO2 for 48 hours. Media was removed and cells were fixed with methanol. Cells were stained with Diff-Quik Wright-Giemsa (Dade-Behring, Newark, Del.) and digital images were taken. Coverslips were removed with forceps and more digital images were captured. Pixel quantification of images was achieved using Image J and statistics were performed using Prism 5 and InStat v.3.05.
MDCK cells were grown to 100% confluency on the coverslips in six-well plates and washed twice with PBS. The confluent coverslips were then aseptically transferred to new six well plates containing 900 μl serum free DMEM. Norleual, Hinge peptide, and/or HGF (20 ng/ml) were added to appropriate wells. Control wells received PBS vehicle. Plates were incubated at 37° C. with 5% CO2 for 48 h. Media was removed and cells were fixed with methanol. […] Pixel quantification of images was achieved using Image J and statistics were performed using Prism 5 and InStat v.3.05 (GraphPad; San Diego, Calif.).

[5] = tested on: hippocampal neurons; test: Dendritic spine counts (spinogenesis) in mRFP-β-actin transfected dissociated hippocampal neurons; type: cell-based, rat; details: HGF 10 ng/ml, Dihexa or Nle1-AngIV 10^−12 M
Protocol: Hippocampal neurons (2×10^5 cells per square cm) were cultured from P1 Sprague Dawley rats on plates coated with poly-L-lysine from Sigma (St. Louis, Mo.; molecular weight 300,000). […] Each experiment was repeated at least three times using independent culture preparations. […] Hippocampal neurons (2×10^5 cells per square centimeter) were cultured from P1-2 Sprague Dawley rats on plates coated with poly-L-lysine from Sigma (St. Louis, Mo.; molecular weight 300,000). Hippocampal neurons were maintained in Neurobasal A media from Invitrogen (Carlsbad, Calif.) supplemented with B27 from Invitrogen, 0.5 mM L-glutamine, and […] cytosine-D-arabinofuranoside from Sigma added at 2 days in vitro. Hippocampal neurons were then cultured a further 3-7 days, at which time they were either transfected or treated with various pharmacological reagents as described in the text or figure legends. Neurons were transfected with mRFP-β-actin on day in vitro 6 […] using LipofectAMINETM 2000 (Invitrogen) according to the manufacturer's protocol. […] On DIV7 the cells were treated with vehicle (H20) or peptides (as described in the text) added to media. […] Five 50 μm long segments of dendrite from at least 10 neurons per data point were analyzed for each data point reported. Each experiment was repeated at least three times using independent culture preparations. […] A target sequence for c-Met was designed using RNAi central design program (see the website located at […].edu/). The target sequence […] NO: 2) was inserted into pSUPER vector (Oligoengine, Seattle Wash.) which drives endogenous production of shRNA under the H1 promoter. The shRNA was transfected into cells using the lipofectamine method described above. Verification of receptor knockdown was done by creating a c-[…]-Myc tagged gene product using the Gateway cloning system (Invitrogen). The Met protein coding sequence was cloned from rat whole brain cDNA using primers obtained from Integrated DNA Technologies, Inc. The amplified product was gel purified and a band corresponding to 190 kDa band excised and cloned into a […] destination vector (Gateway). Hippocampal neurons (2×10^5 cells per square cm) were cultured from P1 Sprague Dawley rats on plates coated with poly-L-lysine from Sigma (St. Louis, Mo.; molecular weight […]).

[6] = tested on: hippocampal neurons; test: Immunocytochemistry: percent correlation of spines to synaptic markers; type: cell-based, rat; details: HGF 10 ng/ml, 5 days
Protocol: (§1) Transfected neurons were treated, fixed and stained. Briefly, cells were permeablized with 0.1% Triton X-100 detergent (Bio-Rad; Hercules, Calif.) for 10 minutes. An 8% bovine serum albumin (Intergen Company; Burlington, Mass.) in PBS was used to prevent non-specific binding for one hour at R.T.; Primary antibody incubations were at a 1:2500 dilution (see below) in 1% BSA in PBS at 4° C. overnight. Secondary antibody, 1:3000 Alexafluor 488 goat-anti-mouse (Invitrogen: Carlsbad, Calif.) was applied for two hours at room temperature. Coverslips were mounted with ProLong Gold anti-fade reagent (Invitrogen; Carlsbad, Calif.) and all washes were done with PBS. Imaging and analysis were performed as described above. For presynaptic excitatory transmission the VGLUT1 (Synaptic Systems, Goettingen, Germany) marker (Balschun, Moechars et al.) was employed and for general presynaptic transmission synapsin1 (Synaptic Systems, Goettingen, Germany) (Ferreira and Rapoport 2002) was applied. A postsynaptic function was established by PSD-95 (Milipore, Billerica, Mass.) (El-Husseini, Schnell et al. 2000). In each instance the total number of spines was counted for the treatment groups, control, Nle1-AngIV and Dihexa, to ensure an active phenotype. The total number of actin enriched spines adjacent to VGLUT1 or Synapsin were counted and converted to a percentage as the percent correlation of treatment-induced spines to presynaptic markers is a strong indicator of ability to transmit excitatory signals.
as §1, with “fixed and stained as previously described in Chapter two. Briefly, cells” for “fixed and stained. Briefly, cells”, “enriched spines (red) adjacent to” for “enriched spines adjacent to”
Transfected neurons were treated and fixed as described above. Following fixation, cells were rinsed in PBS and permeabilized with 0.1% Triton® X-100 detergent (Bin-Rad; Hercules, Calif.), followed by two rinses in PBS and blocked with 8% bovine serum albumin (Intergen Company; Burlington, Mass.) in PBS for 1 h. […]

[7] = tested on: c-Met receptor; test: c-Met phosphorylation in acute adult hippocampal slices; type: cell-based, rat; details: 30 minutes
Description: Adult Sprague-Dawley rats (250 g+) obtained from Harlan Laboratories (Ca, USA) were anesthetized with isofluorane (Vet One™, MWI, Meridian, Id., USA) and decapitated. The brain was rapidly removed and placed into ice-chilled artificial cerebrospinal fluid (aCSF) for approximately 30 s. Both hemispheres were separated by a mid-saggital cut and both hippocampi removed. Slices were sectioned cross- and length-wise (400 μm) to ensure penetrability of the drug, using a Mcllwain tissue chopper (Brinkmann, Gomshall, UK) and transferred to a gassed (95% O2/5% CO2) incubation chamber containing aCSF for 90 minutes at room temperature. Slices were transferred to fresh tubes, aCSF was removed by careful suctioning and replaced with aCSF containing vehicle (aCSF+aCSF), 100 ng/ml with carrier free adult recombinant Hepatocyte Growth Factor (HGF) (R and D Systems, MN, USA) in aCSF, 10^−10 M Hinge (Harding lab), […], 10^−10 M Dihexa (Harding lab) in aCSF, 10^−12 M Dihexa in aCSF or 50 ng/ml HGF+10^−12 M Dihexa in aCSF for 30 minutes at 37° C. with gentle rocking. aCSF was removed and the slices were lysed using RIPA buffer (Upstate/Milipore, Billerica, Mass.) and inhibitor Cocktails I and II (Sigma, St. Louis, Mo.), sonicated on ice and clarified by centrifugation for 30 minutes, 13,000 rpm at 4° C. The supernatant was removed from the pellet and stored at −80° C. or processed immediately for gel electrophoresis.
Protein concentration of the samples was quantified using the BCA method (Pierce, Rockford, Ill.) following the manufacturers protocol. Samples were added to SDS-PAGE buffer and boiled for 10 min. before loading onto a 4-12% Bis-Tris pre-cast gel (Invitrogen, Carlsbad, Calif.) for electrophoresis. Proteins were transferred onto PVDF membranes (Bio Rad, Hercules, Calif.) and blocked with AquaBlock™ (New England Biolabs, Ipswich, Mass.) for 1 hour at room temperature (RT). Primary antibody incubation was done in AquaBlock™ with rabbit anti-Met and […] phospho-Met (Tyr1234/1235) (1:1000, Cell Signaling Technology, Danvers, Mass.) overnight at 4° C. Alternating washes were done with PBS and PBST. Secondary antibody (IRDye) (Rockland, Gilbertsville, Pa.) incubations were done in AquaBlock™ for one hour at RT. Blots were imaged using LI-COR Odyssey Infrared Imaging System (LI-COR Biosciences, Lincoln, Nebr.).

Compound: CN1C(C(=O)Nc2ccccn2)=C(O)c2ccccc2S1(=O)=O [piroxicam, reference compound]
- microsomal CLint at 5 µM ([1]; microsomes): 60.2 µL/min/mg

Compound: CCCC[C@@H](N)C(=O)N[C@@H](Cc1c[nH]c2ccccc12)C(=O)N[C@H](C(=O)NCCCCCC(N)=O)[C@@H](C)CC [D-Nle-Trp-Ile-NH—(CH2)5—CONH2] (H-[dNle]WI[Ahx]-NH2)
- inhibition of HGF dimerization [2]: intermediate inhibition of dimerization
- inhibition of HGF dimerization ([2]; listed as Trp): statistically different than the HGF treated group
- inhibition of HGF-dependent MDCK cell proliferation [3]: showed inhibitory activity, albeit less than that observed with the most potent analogs

Compound: CCCC[C@@H](N)C(=O)N[C@@H](CCSC)C(=O)N[C@H](C(=O)NCCCCCC(N)=O)[C@@H](C)CC [D-Nle-Met-Ile-NH—(CH2)5—CONH2] (H-[dNle]MI[Ahx]-NH2)
- inhibition of HGF dimerization [2]: unable to block dimerization at the concentration tested
- inhibition of HGF-dependent MDCK cell scattering [4]: The HGF and HGF+Met groups were not different

Compound: HGF: carrier free adult recombinant Hepatocyte Growth Factor (R and D Systems)
- mean spine numbers per 50 μm dendrite length ([5]; neurons transfected with mRFP-β-actin alone, 48 hours): 20.6 spines per 50 μm dendrite leng
- mean spine numbers per 50 μm dendrite length ([5]; neurons transfected with mRFP-β-actin and shMet (c-Met knock-down)): 12.4 spines per 50 μm dendrite leng
- correlation between Synapsin and postsynaptic actin-enriched spines [6]: 98%
- c-Met phosphorylation vs vehicle (aCSF) ([7]; saturating doses: HGF 100 ng/ml, Dihexa 10^−10 M): increased c-Met phosphorylation; also recorded: effectively augment c-Met phosphorylation
- c-Met phosphorylation vs vehicle (aCSF) ([7]; sub-threshold doses: HGF 50 ng/ml, Dihexa 10^−12 M): not statistically different from control treated slices; also recorded: did not significantly increase c-Met receptor phosphorylation

Compound: CCOc1ccc2ccc(=O)oc2c1 [7-ethoxycoumarin, reference compound]
- microsomal CLint at 5 µM ([1]; pooled liver microsomes): 137 µL/min/mg
